Data: patent publication US7309494B2, “Peptides of the respiratory syncytial virus (RSV) G protein and their use in a vaccine” (Pierre Fabre Medicament, priority 2001, dated 2007)
“Also recorded” adds a separate entry of the source.

Columns and labels:
RSV-A [1] = assay: Protection against an RSV-A challenge in immunized mice (viral titer 5 days after challenge); format: in vivo, Balb/c mice; settings: naive mice
Procedure: (§1) In order to test the immunogenicity of the G23a and G20a peptides, Balb/c mice were immunized with 6 or 1.5 μg of G2Na equivalent twice, on D0 and D14, intramuscularly.
Ten days after the final immunization, the mice were challenged with 10^5 pfu/50 μl of RSV-A. The viral titer was measured 5 days after the challenge.

RSV-B = assay: Anti-RSV-B antibody titer before and after immunization in naive mice; format: in vivo; settings: naive Balb/c mice, 6 or 1.5 μg G2Na equivalent i.m. on D0 and D14; after first immunization
Procedure: as §1
(§2) Some mice were sensitized with RSV 20 days before the first immunization in order to make them seropositive with respect to RSV. A sample was taken from the mice before each immunization and the anti-G2Na, RSV-A and RSV-B antibody titers were determined.

[2] = Determination of the IHS (immediate hypersensitivity) in guinea pigs; format: in vivo; settings: for death of the guinea pigs (dead/tested): i.m. D0 and D8 with 20% adjuphos, i.v. booster D21
Procedure: Guinea pigs are immunized on D0 and D8 with the various molecules adjuvented with 20% (v/v) adjuphos, given i.m. On D21, a booster is given with the various molecules, nonadjuvented, by i.v. The death of the guinea pigs is then evaluated.
A positive experimental control consisting of ovalbumin at 200 μg is included for each molecule tested (cf. table 3 below).

RSV-A [3] = assay: Anti-RSV-A antibody titer before and after immunization in naive mice; format: in vivo, Balb/c mice
Procedure: as §1, §2

Molecule | protection of the pulmonary tract subsequent to challenge with RSV-A (RSV-A [1]; challenge 10^5 pfu/50 μl RSV-A ten days after final immunization) | immunogenicity and protection compared with BBG2Na (RSV-A [1]) | anti-RSV-B antibody response (RSV-B) | death of the guinea pigs (dead/tested) ([2]; 4 mg) | death of the guinea pigs (dead/tested) ([2]; 40 mg) | induction of IHS ([2]; guinea pigs, 6 animals tested) | anti-RSV-A antibody response (RSV-A [3]; naive Balb/c mice, 6 or 1.5 μg G2Na equivalent i.m. on D0 and D14, after first immunization) | immunogenicity in naive mice (summary) (RSV-A [3]; naive mice) | death of the guinea pigs (dead/tested) ([2]; positive control T+, ovalbumin at 200 μg)
G20a: fragment of the G protein of RSV-A (140-190)-(144-158) of 69 amino acids, SEQ ID No.1 | induces protection of the pulmonary tract; also recorded: protective | comparable to those observed with BBG2Na | develop anti-RSV-A and RSV-B antibody responses from the first immunization | 0/6 | 0/6 | does not induce any IHS in 6/6 animals tested | develop anti-RSV-A and RSV-B antibody responses from the first immunization | immunogenic | 
ovalbumin (protein, UniProt P01012 2-386, looked up, positive experimental control consisting of ovalbumin at 200 μg) Ovalbumin: GSIGAASMEFCFDVFKELKVHHANENIFYCPIAIMSALAMVYLGAKDSTRTQINKVVRFDKLPGFGDSIEAQCGTSVNVHSSLRDILNQITKPNDVYSFSLASRLYAEERYPILPEYLQCVKELYRGGLEPINFQTAADQARELINSWVESQTNGIIRNVLQPSSVDSQTAMVLVNAIVFKGLWEKAFKDEDTQAMPFRVTEQESKPVQMMYQIGLFRVASMASEKMKILELPFASGTMSMLVLLPDEVSGLEQLESIINFEKLTEWTSSNVMEERKIKVYLPRMKMEEKYNLTSVLMAMGITDVFSSSANLSGISSAESLKISQAVHAAHAEINEAGREVVGSAEAGVDAASVSEEFRADHPFLFCIKHIATNAVLFFGRCVSP |  |  |  |  |  |  |  |  | 5/6
